This note sets out measurements from patent publication US10829473B2, “Modulators of the cystic fibrosis transmembrane conductance regulator protein and methods of use” (AbbVie Overseas S.Á.R.L., priority 2017, dated 2020).

The target of this assay is T1, F508delCFTR (Homo sapiens, UniProt P13569, DEL508-508).
T1 construct: expressed in transfected cells; host or cells: CFBE41o- human lung derived epithelial cells (CFBE41o-F508delCFTR-HRP), doxycycline-inducible
The assay is described as follows: Cell Surface Expression-Horse Radish Peroxidase (CSE-HRP) Assay.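 On EC50 (with co-corrector): co-corrector chromenyl benzoic acid corrector at 2 or 3 µM.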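 On Maximum % activity (without co-corrector): % of on-plate positive control chromenyl benzoic acid corrector at 2 or 3 µM.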 Type of assay: cell-based. The conditions noted are these: for Maximum % activity (with co-corrector) / Emax: maximum at any tested concentration; for Emax: read-out: Maximum % activity (without co-corrector). The method in brief: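 Corrector compounds were given as 8-point 3-fold series from 20 or 30 μM, with or without a 2 μM co-corrector, for 18-24 h at 33 °C. Surface HRP was read by luminol luminescence as % of positive control; variable-Hill-slope sigmoidal fitting gave EC50 from triplicate plates.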

Where [1] appears, read: test compound alone, without co-corrector, read-out: EC50 (without co-corrector).
Where [2] appears, read: with co-corrector, read-out: EC50 (with co-corrector).

The structures appear in SMILES notation. Where two headings read alike, the source gives them in different places.

T1 sequence (P13569 with tags, fused parts or gaps DEL508-508): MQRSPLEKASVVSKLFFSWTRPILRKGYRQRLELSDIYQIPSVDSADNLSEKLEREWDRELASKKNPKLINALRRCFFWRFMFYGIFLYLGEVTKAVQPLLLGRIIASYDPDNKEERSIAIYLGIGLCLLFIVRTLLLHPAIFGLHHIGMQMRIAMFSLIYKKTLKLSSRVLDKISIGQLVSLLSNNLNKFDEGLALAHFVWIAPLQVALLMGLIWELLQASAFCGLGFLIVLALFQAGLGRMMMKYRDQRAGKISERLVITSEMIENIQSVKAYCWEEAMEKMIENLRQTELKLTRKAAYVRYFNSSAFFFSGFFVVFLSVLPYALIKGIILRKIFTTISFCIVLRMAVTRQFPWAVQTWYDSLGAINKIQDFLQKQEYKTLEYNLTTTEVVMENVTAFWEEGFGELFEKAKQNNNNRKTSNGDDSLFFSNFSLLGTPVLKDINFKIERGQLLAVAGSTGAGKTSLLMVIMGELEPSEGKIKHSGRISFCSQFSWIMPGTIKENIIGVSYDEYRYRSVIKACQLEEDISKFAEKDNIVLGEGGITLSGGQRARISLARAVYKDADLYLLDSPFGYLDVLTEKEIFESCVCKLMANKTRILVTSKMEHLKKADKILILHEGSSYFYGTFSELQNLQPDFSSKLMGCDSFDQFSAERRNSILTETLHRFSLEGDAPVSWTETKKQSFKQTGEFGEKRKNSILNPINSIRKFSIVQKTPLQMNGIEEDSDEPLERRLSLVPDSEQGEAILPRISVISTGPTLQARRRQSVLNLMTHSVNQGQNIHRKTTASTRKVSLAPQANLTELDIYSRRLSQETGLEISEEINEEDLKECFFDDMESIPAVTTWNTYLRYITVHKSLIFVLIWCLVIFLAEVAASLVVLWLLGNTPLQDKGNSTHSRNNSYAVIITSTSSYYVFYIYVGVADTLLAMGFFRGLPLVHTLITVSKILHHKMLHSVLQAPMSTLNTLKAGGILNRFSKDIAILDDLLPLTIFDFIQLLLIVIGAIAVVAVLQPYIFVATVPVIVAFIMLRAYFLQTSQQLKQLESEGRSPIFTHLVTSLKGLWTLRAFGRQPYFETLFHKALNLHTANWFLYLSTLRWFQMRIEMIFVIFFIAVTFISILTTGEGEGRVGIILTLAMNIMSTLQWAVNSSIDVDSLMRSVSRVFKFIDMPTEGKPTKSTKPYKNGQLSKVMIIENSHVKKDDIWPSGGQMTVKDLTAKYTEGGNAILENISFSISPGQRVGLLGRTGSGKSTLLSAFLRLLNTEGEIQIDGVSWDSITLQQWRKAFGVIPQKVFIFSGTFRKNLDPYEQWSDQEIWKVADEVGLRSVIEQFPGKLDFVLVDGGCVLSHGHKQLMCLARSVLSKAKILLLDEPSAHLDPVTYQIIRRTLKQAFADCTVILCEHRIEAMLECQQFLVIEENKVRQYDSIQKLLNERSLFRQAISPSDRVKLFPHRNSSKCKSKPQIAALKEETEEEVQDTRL

The EC50 is the midpoint of the concentration-response curve. Regarding `O=C(NS(=O)(=O)c1cccc2ccccc12)C1(c2ccc3c(c2)OC(F)(F)O3)CC1` [Example III-91, 1-(2,2-difluoro-2H-1,3-benzodioxol-5-yl)-N-(naphthalene-1-sulfonyl)cyclopropane-1-carboxamide], the EC50 under setting [1] is more than 10 µM and the EC50 under setting [2] was 3 to 10 µM. The “Maximum % activity (with co-corrector)” value (with co-corrector) is given as “+++ (≥350)”. Moreover, the Emax (without co-corrector) was more than 150%.
As for `O=C(NS(=O)(=O)c1cccc2ccccc12)C1(c2cccc(Br)c2)CC1` [Example III-92, 1-(3-bromophenyl)-N-(naphthalene-1-sulfonyl)cyclopropane-1-carboxamide], the EC50 runs as follows: under setting [1], 3 to 10 µM; under setting [2], 3 to 10 µM. Also, the “Maximum % activity (with co-corrector)” value (with co-corrector) is “+++ (≥350)”. Besides, the Emax (without co-corrector) was more than 150%.
Take `O=C(NS(=O)(=O)c1cccc2ncccc12)C1(c2cccc(Br)c2)CC1` [Example III-93, 1-(3-bromophenyl)-N-(quinoline-5-sulfonyl)cyclopropane-1-carboxamide]: the EC50 is, setting by setting: under setting [1], 3 to 10 µM; under setting [2], 3 to 10 µM. Also, the “Maximum % activity (with co-corrector)” value (with co-corrector) is recorded as “+++ (≥350)”. The Emax (without co-corrector) is more than 150%.
In the case of `COc1ccc(C)c(C2(C(=O)NS(=O)(=O)c3cccc4ncccc34)CCN(C)CC2)c1` [Example III-94, 4-(5-methoxy-2-methylphenyl)-1-methyl-N-(quinoline-5-sulfonyl)piperidine-4-carboxamide], the EC50 by setting is: under setting [1], more than 10 µM; under setting [2], more than 10 µM. Further, the “Maximum % activity (with co-corrector)” value (with co-corrector) is “+ (<150)”. For the same molecule, the Emax (without co-corrector) is less than 50%.
Turning to `COc1ncc(C(F)(F)F)cc1C1(C(=O)NS(=O)(=O)c2cccn3nccc23)CC1` [Example III-95, 1-[2-methoxy-5-(trifluoromethyl)pyridin-3-yl]-N-(pyrazolo[1,5-a]pyridine-4-sulfonyl)cyclopropane-1-carboxamide], the EC50 runs as follows: under setting [1], 3 to 10 µM; under setting [2], 3 to 10 µM. In addition, the “Maximum % activity (with co-corrector)” value (with co-corrector) is listed as “+++ (≥350)”. Besides, the Emax (without co-corrector) is more than 150%.
As for `COc1ncc(C(F)(F)F)cc1C1(C(=O)NS(=O)(=O)c2cccc3ncn(C)c23)CC1` [Example III-96, 1-[2-methoxy-5-(trifluoromethyl)pyridin-3-yl]-N-(1-methyl-1H-benzimidazole-7-sulfonyl)cyclopropane-1-carboxamide], the EC50 is 3 to 10 µM under setting [1] and 3 to 10 µM under setting [2]. In addition, under “with co-corrector”, the “Maximum % activity (with co-corrector)” value was “+++ (≥350)”. For the same molecule, the Emax (without co-corrector) lay in the range of 50 to 150%.
On to `COc1ncc(C(F)(F)F)cc1C1(C(=O)NS(=O)(=O)c2cccc3cnn(C)c23)CC1` [Example III-97, 1-[2-methoxy-5-(trifluoromethyl)pyridin-3-yl]-N-(1-methyl-1H-indazole-7-sulfonyl)cyclopropane-1-carboxamide], for which the EC50 was 3 to 10 µM under setting [1] and 3 to 10 µM under setting [2]. Also, the “Maximum % activity (with co-corrector)” value (with co-corrector) is given as “+++ (≥350)”. In addition, the Emax (without co-corrector) is more than 150%.
Consider `COc1ncc(C(F)(F)F)cc1C1(C(=O)NS(=O)(=O)c2cccc3[nH]ncc23)CC1` [Example III-98, N-(1H-indazole-4-sulfonyl)-1-[2-methoxy-5-(trifluoromethyl)pyridin-3-yl]cyclopropane-1-carboxamide], for which the EC50 was in the range of 3 to 10 µM under setting [1] and 3 to 10 µM under setting [2]. For the same molecule, the “Maximum % activity (with co-corrector)” value (with co-corrector) was “+++ (≥350)”. The Emax (without co-corrector) was more than 150%.
As to `COc1ccc(C#N)cc1C1(C(=O)NS(=O)(=O)c2cccc3ncccc23)CC1` [Example III-99, 1-(5-cyano-2-methoxyphenyl)-N-(quinoline-5-sulfonyl)cyclopropane-1-carboxamide], the concentration for a half-maximal effect (EC50) is, setting by setting: under setting [1], 3 to 10 µM; under setting [2], 3 to 10 µM. In addition, the “Maximum % activity (with co-corrector)” value (with co-corrector) is recorded as “+++ (≥350)”. For the same molecule, for the setting “without co-corrector”, the Emax fell in the range of 50 to 150%.
As for `COc1ccc(C#N)cc1C1(C(=O)NS(=O)(=O)c2cccc3c2CCCN3)CC1` [Example III-100, 1-(5-cyano-2-methoxyphenyl)-N-(1,2,3,4-tetrahydroquinoline-5-sulfonyl)cyclopropane-1-carboxamide], the EC50 by setting is: under setting [1], 3 to 10 µM; under setting [2], 3 to 10 µM. Also, for the setting “with co-corrector”, the “Maximum % activity (with co-corrector)” value is “+++ (≥350)”. Where the note is “without co-corrector”, the Emax is more than 150%.
`COc1ccc(C23CC(C2)C3)cc1C1(C(=O)NS(=O)(=O)c2cccc3c2CCCN3)CC1` [Example III-101, 1-[5-(bicyclo[1.1.1]pentan-1-yl)-2-methoxyphenyl]-N-(1,2,3,4-tetrahydroquinoline-5-sulfonyl)cyclopropane-1-carboxamide]: the EC50 by setting is: under setting [1], less than 3 µM; under setting [2], less than 3 µM. For the same molecule, under “with co-corrector”, the “Maximum % activity (with co-corrector)” value is recorded as “+++ (≥350)”. The Emax (without co-corrector) was more than 150%.
As for `COc1cccc(C)c1C1(C(=O)NS(=O)(=O)c2cccc3c2ccn3C)CC1` [Example III-102], the EC50 by setting is: under setting [1], 3 to 10 µM; under setting [2], 3 to 10 µM. Moreover, for the setting “with co-corrector”, the “Maximum % activity (with co-corrector)” value is “+++ (≥350)”. The Emax (without co-corrector) is more than 150%.
Turning to `COc1c(Cl)cc(Cl)c(OC)c1C1(C(=O)NS(=O)(=O)c2cccc3ncccc23)CC1` [Example III-103, 1-(3,5-dichloro-2,6-dimethoxyphenyl)-N-(quinoline-5-sulfonyl)cyclopropane-1-carboxamide], the EC50 is 3 to 10 µM under setting [1] and less than 3 µM under setting [2]. Moreover, the “Maximum % activity (with co-corrector)” value (with co-corrector) is “+++ (≥350)”. Further, the Emax (without co-corrector) was more than 150%.
Take `O=C(NS(=O)(=O)Cc1ccccc1)C1(c2ccc(Cl)cc2Cl)CC1` [Example III-104, 1-(2,4-dichlorophenyl)-N-(phenylmethanesulfonyl)cyclopropane-1-carboxamide]: the EC50 was more than 10 µM under setting [1] and 3 to 10 µM under setting [2]. Further, under “with co-corrector”, the “Maximum % activity (with co-corrector)” value is “++ (≥150 and <350)”. Also, the Emax (without co-corrector) is less than 50%.
Turning to `O=C(NS(=O)(=O)C(F)(F)F)C1(c2ccc(Cl)cc2Cl)CC1` [Example III-105, 1-(2,4-dichlorophenyl)-N-(trifluoromethanesulfonyl)cyclopropane-1-carboxamide], the EC50 by setting is: under setting [1], more than 10 µM; under setting [2], more than 10 µM. The “Maximum % activity (with co-corrector)” value (with co-corrector) is “+ (<150)”. For the setting “without co-corrector”, the Emax was less than 50%.
On to `O=C(NS(=O)(=O)CC(F)(F)F)C1(c2ccc(Cl)cc2Cl)CC1` [Example III-106, 1-(2,4-dichlorophenyl)-N-(2,2,2-trifluoroethanesulfonyl)cyclopropane-1-carboxamide], for which the EC50 under setting [1] was more than 10 µM and the EC50 under setting [2] was more than 10 µM. The “Maximum % activity (with co-corrector)” value (with co-corrector) is “+ (<150)”. Further, the Emax (without co-corrector) was less than 50%.
On to `CCCS(=O)(=O)NC(=O)C1(c2ccc(Cl)cc2Cl)CC1` [Example III-107, 1-(2,4-dichlorophenyl)-N-(propane-1-sulfonyl)cyclopropane-1-carboxamide], for which the EC50 under setting [1] was more than 10 µM and the EC50 under setting [2] is more than 10 µM. Besides, under “with co-corrector”, the “Maximum % activity (with co-corrector)” value is reported as “+ (<150)”. The Emax (without co-corrector) was less than 50%.
With `O=C(NS(=O)(=O)CCCCl)C1(c2ccc(Cl)cc2Cl)CC1` [Example III-108, N-(3-chloropropane-1-sulfonyl)-1-(2,4-dichlorophenyl)cyclopropane-1-carboxamide], the concentration giving a half-maximal response (EC50) under setting [1] is more than 10 µM and the concentration for a half-maximal effect (EC50) under setting [2] was in the range of 3 to 10 µM. For the same molecule, where the note is “with co-corrector”, the “Maximum % activity (with co-corrector)” value is “++ (≥150 and <350)”. Moreover, for the setting “without co-corrector”, the Emax was less than 50%.
